These results are taken from US20140243332A1, “METHODS OF TREATING CANCERS CHARACTERIZED BY ABERRENT ROS1 ACTIVITY” (Oregon Health & Science University, priority 2013, published 2014).

For experiment [1], the system named is FIG-ROS cholangiocarcinoma tumor cells. Put plainly: Anchorage-independent colony formation in soft agar, FIG-ROS cholangiocarcinoma cells. It is filed as cell-based, murine. The conditions noted are these: dose dependent. An excerpt: […]. The values indicate the mean and the error bars indicate the standard error of the mean of 3 independent wells.
. The inhibition was dose dependent (FIG. 2B). […].

The target of experiment [2] is Ba/F3 CD74-ROS G2032R mutant cells (Homo sapiens, UniProt P08922, G2032R, cells depend on it). Put plainly: Cell growth assay, Ba/F3 CD74-ROS G2032R. It is filed as cell-based. The conditions noted are these: 72 hour exposure, read-out: IC50 (the source's name).
Source text: Data are shown as normalized to vehicle-treated cells. The values are means±SEM from three independent experiments performed in triplicate.
Experiment [3] addresses T1, SLC-ROS (Homo sapiens, UniProt P08922). Put plainly: Immunoblot of NIH3T3 SLC-ROS lysates. Set-up: SLC34A2 N-terminal portion, fusion partner; expressed in transfected cells; host or cells: Ba/F3 (A15) and NIH3T3 (A25), retroviral pMIG; the other entry of the earlier key: SLC34A2 (O95436, Sodium-dependent phosphate transport protein 2B). The format is cell-based. The conditions noted are these: NIH3T3 SLC-ROS cells, 1 hour, at lower doses than crizotinib. The procedure:
(§1) The parental Ba/F3 cell line was cultured in RPMI 1640 medium with 10% FBS, L-glutamine, penicillin/streptomycin and 15% WEHI-conditioned media. Ba/F3 cell lines were maintained at densities of 0.5×10^6 to 1.5×10^6 per ml of media. FIG-ROS and SLC-ROS Ba/F3 lines were created by infecting the parental Ba/F3 with retrovirus expressing either human FIG-ROS-S (indicated FIG-ROS herein) or SLC-ROS-S (indicated SLC-ROS herein). Stable transfectant lines were sorted for GFP expression on a FACS Aria® flow cytometer. Cells were counted daily using Guava ViaCount® reagent and Guava Personal Cell Analysis® flow cytometer. […] Early passage NIH3T3 cells were infected with retrovirus expressing either FIG-ROS or SLC-ROS and sorted for GFP expression as described above for Ba/F3 cells. HCC78 cells were cultured in RPMI 1640 medium with 10% FBS, L-glutamine, and penicillin/streptomycin. This media is referred to as RPMI-10% FBS herein.
In general terms: Immunoblotting shows a protein as a band on a membrane.

The target in the next experiment is Ba/F3 ALK F1174L cells (Homo sapiens, UniProt Q9UM73, F1174L, cells depend on it). Put plainly: Cell viability (MTS) assay, Ba/F3 ALK F1174L. It is filed as cell-based. The conditions noted are these: 72 hours, read-out: IC50 (the source's name).
Experiment [4] has as its target Ba/F3 FIG-ROS L1947R cells (Homo sapiens, UniProt P08922, L1947R, cells depend on it). Put plainly: Cell viability assay, Ba/F3 FIG-ROS L1947R. It is filed as cell-based. The conditions noted are these: Table 3, Ba/F3 FIG-ROS L1947R; nM; read-out: IC50 (the source's name). How it is done:
(§2) Cell lines were distributed in 96-well plates and incubated with the indicated concentrations of inhibitor for 72 hours. […] Ba/F3 cell lines were plated at 4×10^3 cells/well. HCC78 and mCC cell lines were plated at 1.5×10^3 cells/well. All cell types were seeded in a final volume of 80 microliters. A 20 microliter volume of five-fold concentrated inhibitor media was added. Cell proliferation was measured using a […] viability assay (CellTiter96 Aqueous One® Solution; Promega). A BioTek Synergy 2® plate reader was used to read the absorbance at 490 nm at 30 minutes and 1 hour after addition of MTS. To facilitate comparison between experiments, the raw MTS absorbance of vehicle (0.1% DMSO) treated cells was set to 1 and absorbance from inhibitor treated wells was normalized to the vehicle treated value. […] Data were normalized using Microsoft Excel® and further non-linear regression curve fit analysis of the normalized data for determination of IC50 was performed using Graphpad Prism® software.
(§3) The FIG-ROS-S fusion gene was synthesized using the GeneArt® service. FIG-ROS-S is denoted as FIG-ROS herein.

Experiment [5] deals with Ba/F3 FIG-ROS G1971E cells (Homo sapiens, UniProt P08922, G1971E, cells depend on it). Put plainly: Cell viability assay, Ba/F3 FIG-ROS G1971E. To be noted: Table 3, Ba/F3 FIG-ROS G1971E; nM; read-out: IC50 (the source's name). The format is cell-based. How it is done:
as §2, §3

The next experiment relates to HCC78 cells. Put plainly: Cell viability (MTS) assay, HCC78. The format is cell-based, human. The conditions noted are these: Homo sapiens, 72 hour exposure, read-out: IC50 HCC78 cell growth. The procedure: as §1
Experiment [6] concerns the target T1, SLC-ROS. Put plainly: Immunoblot of Ba/F3 SLC-ROS lysates. Set-up: SLC34A2 N-terminal portion, fusion partner; expressed in transfected cells; host or cells: Ba/F3 (A15), retroviral pMIG; the other entry of the earlier key: SLC34A2 (O95436, Sodium-dependent phosphate transport protein 2B). It is filed as cell-based. To be noted: Ba/F3 SLC-ROS cells, increasing amounts, immunoblot FIG. 1C. How it is done: FIG. 1C is an image of an immunoblot of lysates of Ba/F3 FIG-ROS and Ba/F3 SLC-ROS and the indicated downstream effectors after treatment with the indicated compounds. Images shown are representative of three independent experiments.
Ba/F3 FIG-ROS, Ba/F3 SLC-ROS, HCC78 and mCC cell lines were treated with the indicated concentration of inhibitors for 1-2 hours. […] The protein content of the cell lysates was determined and lysates were either used for immunoprecipitation where indicated or extracted with SDS Sample buffer for 15 minutes at 80° C. Proteins were transferred to Immobilon-FL membranes and immunoblotted with antibodies specific for phospho-ROS1 (Cell Signaling Technology (CST) #3078), total ROS1 (CST #3266), phopsho-Shp2 (CST #3751), total Shpt (CST #3752), phospho-Stat3 (CST #9145), total Stat3 (CST #4904), phospho-Erk1/2 (CST #9101), total Erk2 (Santa Cruz #SC-1647), phospho-S6 (CST #4858), total S6 (CST #2216), phospho-Src (CST #2105), total Src (CST #2110), α-tubulin (Sigma T6199), or β-actin (Sigma A1978) as indicated. Images of the blots were generated by the LI-COR Odyssey® imaging system, following the manufacturer's protocol for immunoblot detection with use of IR-dye conjugated secondary antibodies.

In another experiment the test system is PC9 cells. Put plainly: Cell viability assay, PC9. The format is cell-based, human. The conditions noted are these: PC9 cells (activated EGFR), FIG. 6B. The procedure:
IC50 was determined from non-linear regression curve fit analysis of the dose response curves.

The next experiment concerns NIH3T3 SLC-ROS cells. Put plainly: Soft agar colony formation, NIH3T3 SLC-ROS. The format is cell-based. The conditions noted are these: at lower doses than crizotinib. The text has this:
The bottom panels are bar graphs indicating the number of colonies formed from the plates depicted in the top panels. The values indicate average colony number±SEM from 4 independent wells.

The structures appear in SMILES notation. pIC50: −log10 of the molar value.

Broadly, the pIC50 is −log10 of the IC50, conventionally taken in molar units.

As to `COc1cc2c(Oc3ccc(NC(=O)C4(C(=O)Nc5ccc(F)cc5)CC4)cc3F)ccnc2cc1OCCCN1CCOCC1` [foretinib, N1′-[3-fluoro-4-[[6-methoxy-7-(3-morpholinopropoxy)-4-quinolyl]oxy]phenyl]-N1-(4-fluorophenyl)cyclopropane-1,1-dicarboxamide], the “anchorage-independent colonies in soft agar” value in [1] is given as “inhibited”. Further, the GI50 in experiment [2] came out at 50 nM; on Ba/F3 ALK F1174L cells, 1800 nM; in [4] it was 17.9 nM; in experiment [5] it was 8.69 nM. Besides, on SLC-ROS [3], the SLC-ROS phosphorylation result was “strongly suppressed”. For the same compound, the negative-log IC50 (pIC50) with HCC78 cells is 6.37. In addition, on SLC-ROS [6], the “autophosphorylation of SLC-ROS and ROS1-driven signaling (phospho-Shp2, phospho-ERK1/2)” value is “dose dependent decrease”. Moreover, the “sensitivity of cell growth” value in the experiment on PC9 cells is given as “relatively insensitive”. The anchorage-independent colony formation result in the experiment on NIH3T3 SLC-ROS cells is on record as “strongly suppressed”.
